Columns and labels:
[1] = test system: ventricular myocytes cultured from chick embryos; experiment: Pharmacological preconditioning: 5 min exposure to agent, then 90 min simulated ischemia; assay type: cell-based; settings: for preconditioning / cardioprotective effect: agent alone, 5 min exposure before 90 min ischemia; for maximal protection compared with full agonist: partial agonist vs full agonist (CCPA or Cl-IB-MECA); for effect of high concentration of partial agonist on protection by full agonist: with full agonist CCPA or Cl-IB-MECA
Description: FIG. 14 is a graph showing that the partial A1 receptor agonist, 8-butylaminoCPA, mimics the cardioprotective effect of ischemic preconditioning. Ventricular myocytes were cultured from chick embryos 14 days in ovo. The ability of the partial A1 agonist, 8-butylaminoCPA (8-butylamino-N^6-cyclopentyladenosine), to induce preconditioning was determined. In brief, myocytes were exposed to 8-butylaminoCPA at the indicated concentrations for 5 min, incubated for 10 min with agonist-free medium, and then exposed to simulated ischemia for 90 min. The extent of myocyte injury was quantitated at the end of the 90 min period by determinating the percentage of cells killed and the amount of creatine kinase (CK) released (units per milligram of cell protein). Data are means±SE of values from five independent experiments.
Determination of myocyte injury was made at the end of the ninety-minute hypoxia, at which time myocytes were taken out of the hypoxic incubator and re-exposed to room air (normal % O2). Aliquots of the media were then obtained for creatine kinase (CK) activity measurement, which is followed by quantitation of the number of viable cells. Measurement of basal level of cell injury was made after parallel incubation of control cells under normal % O2. The extent of hypoxia-induced injury to the ventricular cell was quantitatively determined by the percentages of cells killed and by the amount of CK released into the media according to a previously described method (16, 23). […] In brief, the media were replaced with a trypsin-EDTA buffer to detach the cells, which was then followed by sedimentation of the viable myocytes. Parallel changes in % cells killed and CK released (16, 23) further validated this assay for % cells killed. The amount of CK was measured as enzyme activity (unit/mg), and increases in CK activity above the control level were determined. The percentage of cells killed was calculated as the number of cells obtained from the control group (representing cells not subjected to any hypoxia or drug treatment) minus the number of cells from the treatment group divided by number of cells in control group multiplied by 100%.
Media were then replaced with fresh media, which was then followed by exposure to 90-minute simulated ischemia and the data graphed.

[2] = test system: diacylglycerol level; experiment: Diacylglycerol (DAG) accumulation in [3H]myristate-labeled ventricular myocytes; assay type: cell-based, chick; settings: 1 μM 8-butylaminoCPA or 10 nM MRS1760 for 5 min
Description: FIGS. 15A and 15B show the coupling of the partial A1 and A3 receptor agonists to stimulation of DAG accumulation and the differential inhibitory effects of the phospholipase C inhibitor U-73122 on the cardioprotection caused by 8-butylaminoCPA or by MRS1760, respectively. FIG. 15A: Ventricular myocytes were labeled with [^3H]myristate (Dupont, 49 Ci/mmol, […]) for 24 hours, exposed to 1 μM of 8-butylaminoCPA or 10 nM MRS1760 for 5 min, and the amount of DAG was determined by thin-layer chromatography. Data are expressed as the percentage increase in the amount of DAG relative to that for unstimulated cells, and are means±SE of values from five independent experiments. FIG. 15B: Effects of U-73122 on cardioprotection induced by 8-butylaminoCPA or by MRS1760 were determined. U-73122 (10 μM) was either included or not during the 5 min exposure of ventricular myocytes to 1 μM 8-butylaminoCPA or 10 nM MRS1760, and cardiac injury was assessed after ischemia as described herein below. […]
Quantitation of diacylglycerol (DAG) and measurement of phospholipase D (PLD) activity were carried out as previously described (35, 36). The formation of [^3H] phosphotidylethanol (PEt) during agonist exposure in media containing 0.5% (v/v) ethanol was determined by scintillation counting following its separation from other phospholipids on thin layer chromatography as described (36). […]

[3] = test system: phospholipase C; experiment: Phospholipase C activity in cardiac myocytes; assay type: cell-based, chick
Description: To further test this notion, the ability of 8-butylaminoCPA to stimulate phospholipase C as measured by […] formation, a downstream signaling molecule that mediates the cardioprotective effect of adenosine A1 receptor was determined.

[4] = test system: phospholipase D; experiment: Phospholipase D activity ([3H]phosphatidylethanol formation); assay type: cell-based, chick
Description: Quantitation of diacylglycerol (DAG) and measurement of phospholipase D (PLD) activity were carried out as previously described (35, 36). The formation of [^3H] phosphotidylethanol (PEt) during agonist exposure in media containing 0.5% (v/v) ethanol was determined by scintillation counting following its separation from other phospholipids on thin layer chromatography as described (36). The level of [^3H] PEt represents an index of the PLD activity. The position of DAG or PEt was determined by immersing the thin layer plate in an iodine chamber and their levels were expressed as a percentage of total lipids. Data were expressed as the percentage increase in the amount of DAG or PEt relative to that for unstimulated cells.

| PLD activity [4] | Compound | preconditioning / cardioprotective effect [1] | maximal protection compared with full agonist [1] | effect of high concentration of partial agonist on protection by full agonist [1] | diacylglycerol level [2] | PLC activity [3] |
| --- | --- | --- | --- | --- | --- | --- |
| – | CCCCNc1nc2c(NC3CCCC3)ncnc2n1[C@@H]1O[C@H](CO)[C@@H](O)[C@H]1O [8-butylaminoCPA, 8-butylamino-N^6-cyclopentyladenosine] | able to induce a marked cardioprotective effect | less than that produced by the full agonist CCPA | able to antagonize the protection caused by the full agonist CCPA | an increase in the diacylglycerol level | able to stimulate PLC activity |
| able to stimulate PLD activity | OC[C@@]12C[C@@H]1[C@@H](n1cnc3c(NCc4cccc(I)c4)nc(Cl)nc31)[C@H](O)[C@@H]2O [MRS1760, (1′R,2′R,3′S,4′R,5′S)-4-{2-Chloro-6-[(3-iodophenylmethyl)amino]purin-9-yl}-1-(hydroxymethyl)bicyclo[3.1.0]-hexane-2,3-diol] | able to induce a marked protective effect against ischemia | less than the maximal effect caused by Cl-IB-MECA | blocked the protection induced by the full agonist Cl-IB-MECA | an increase in the diacylglycerol level | – |
